Measured values: BigSolDB 2.1

Cc1ncc(COP(=O)(O)O)c(C=O)c1O.O
solubility (mole fraction)
Conditions	278.15 K	283.15 K	288.15 K	293.15 K	298.15 K	303.15 K	308.15 K	313.15 K	318.15 K
in acetone	4.8e-07	6.8e-07	8.7e-07	1.26e-06	1.74e-06	2.42e-06	3.19e-06	4.06e-06	5.02e-06
in ethanol	2.81e-06	3.12e-06	3.5e-06	3.95e-06	4.18e-06	4.86e-06	6e-06	7.22e-06	8.59e-06
in isopropanol	2.35e-06	2.45e-06	2.77e-06	3.2e-06	3.73e-06	4.59e-06	5.66e-06	7.04e-06	9.17e-06
in methanol	4.5e-06	5.92e-06	8.99e-06	1.33e-05	1.83e-05	2.39e-05	3.18e-05	4.17e-05	5.38e-05
in water	0.000216	0.000247	0.000284	0.000333	0.000388	0.000465	0.000558	0.00066	0.000803
